Legend:
[1] = Dissolution of diclofenac, dissolution test first liquid (pH 1.2); assay type: physicochemical
Method: (§1) Specifically, The Japanese Pharmacopoeia dissolution test first solution (1,000 mL of a liquid prepared by dissolving 2.0 g of sodium chloride and 7.0 mL of hydrochloric acid in water, pH 1.2) and dissolution test second solution (50 mL of phosphate buffer solution, pH 6.8 (a liquid prepared by mixing water with a liquid, which had been prepared by dissolving 3.4 g of potassium dihydrogen phosphate and 3.55 g of anhydrous disodium hydrogen phosphate in water to give 1,000 mL, at the mixing ratio of 1:1, pH 6.8)) were used as the test liquids, and the test was performed at 37±0.5 degrees Celsius and at the rotational speed of 50 rpm.

[2] = Dissolution of diclofenac, dissolution test second liquid (pH 6.8); assay type: physicochemical; details: for Diclofenac concentration pH 6.8: 2 mg diclofenac, 37 degrees Celsius, 50 rpm
Method: as §1

dissolution of diclofenac, in words [1]: prompt elusion | Diclofenac concentration pH 6.8 ([2]; collection time 0 min): 0 μg/mL | Diclofenac concentration pH 6.8 ([2]; collection time 10 min): 20.92 ± 0.66 μg/mL | Diclofenac concentration pH 6.8 ([2]; collection time 20 min): 19.83 ± 0.74 μg/mL | Diclofenac concentration pH 6.8 ([2]; collection time 30 min): 20.07 ± 0.59 μg/mL | Diclofenac concentration pH 6.8 ([2]; collection time 40 min): 19.97 ± 0.22 μg/mL | Diclofenac concentration pH 6.8 ([2]; collection time 60 min): 20.42 ± 0.46 μg/mL | Diclofenac concentration pH 6.8 ([2]; collection time 90 min): 20.21 ± 0.54 μg/mL | Diclofenac concentration pH 6.8 ([2]; collection time 120 min): 20.45 ± 0.69 μg/mL | dissolution of diclofenac, in words ([2]; dissolution test second liquid (pH 6.8)): sustained release
Structure (SMILES): O=C(O)Cc1ccccc1Nc1c(Cl)cccc1Cl [diclofenac bulk powder, diclofenac]
